Experimental data as given in patent US6593306B1, “Methods for modulation and inhibition of telomerase” (Board of Regents, The University of Texas Systems, priority 1995, dated 2003).
Values joined by “and” are separate entries in the source; they are usually repeats but may differ in a detail not shown here. Identical values can stand only once.

Key:
HeLa cell telomerase = target: T1, HeLa cell telomerase (Homo sapiens, UniProt O14746); experiment: HeLa cell telomerase assay; format: biochemical; details: for IC50: HeLa cell telomerase
T1 construct: endogenous in cells; host or cells: HeLa cells (human cervical tumor)

SKBR3 = experiment: Growth inhibition (MTT), SKBR3; format: cell-based; details: Homo sapiens, SK-BR-3, 144 h, 6 days
Procedure: (§1) Exponentially growing cells (1-2×10^3 cells, unless specified otherwise) in 0.1 ml medium were seeded on day 0 in a 96-well microtiter plate. On day 1, 0.1 ml aliquots of medium containing graded concentrations of test analogs were added in duplicate to the cell plates. After incubation at 37° C. in a humidified incubator for 6 days, the plates were centrifuged briefly and 100 μl of the growth medium was removed. Cell cultures were incubated with 50 μl of 3-(4,5-dimethylthiazol-2-yl)-2,5-diphenyl-tetrazolium bromide, (MTT) at a concentration of 1 mg/ml in Dulbecco's phosphate buffered saline (PBS)) for 4 hr at 37° C. The resulting purple formazan precipitate was solubilized with 200 μl of 0.04 N HCl in isopropyl alcohol. Absorbance was monitored in a BioRad Model 3550 Microplate Reader at a test wavelength of 570 nm and a reference wavelength of 630 nm. The absorbance was transferred to a PC 486 computer. The IC50 values were determined by a computer program (EZ-ED50) that fits all the data to the following four-parameter logistic equation: [formula]
(§2) where Amax is the absorbance of control cells, Amin is the absorbance of cells in the presence of highest agent concentration, Y is the observed absorbance, X is the agent concentration, IC50 is the concentration of agent that inhibits the cell growth by 50% of control cells (based on the absorbance) and n is the slope of the curve.
(§3) This is due to the extracellular dephosphorylation of the mono-, di-, or triphosphates by […] or 5′-nucleotidase back to the nucleoside. With this in mind, the inventors used only nucleosides rather than nucleoside triphosphates in these studies. Cultured tumor cells were incubated with selected nucleosides at graded concentrations for 6 days and the growth inhibition was determined by the standard MTT assay.

BT-20 = experiment: Growth inhibition (MTT), BT-20; format: cell-based; details: Homo sapiens, BT-20, 144 h, 6 days
Procedure: as §1, §2, §3

MDA-231 = experiment: Growth inhibition (MTT), MDA-231; format: cell-based; details: Homo sapiens, MDA-MB-231, 144 h, 6 days
Procedure: as §1, §2, §3

PC3 = experiment: Growth inhibition (MTT), PC3; format: cell-based; details: Homo sapiens, PC-3, 144 h, 6 days
Procedure: as §1, §2, §3

MCF-7 = experiment: Growth inhibition (MTT), MCF-7; format: cell-based; details: Homo sapiens, MCF7, 144 h, 6 days
Procedure: as §1, §2, §3

Raji = experiment: Growth inhibition (MTT), Raji; format: cell-based; details: Homo sapiens, 144 h, 6 days
Procedure: as §1, §2, §3

DU145 = experiment: Growth inhibition (MTT), DU145; format: cell-based; details: Homo sapiens, DU-145, 144 h, 6 days
Procedure: as §1, §2, §3

human cancer telomerase = target: T2, human cancer telomerase (Homo sapiens, UniProt O14746); experiment: Nucleoside triphosphate as telomerase substrate, dGTP replaced in modified reaction; format: biochemical
T2 construct: endogenous in cells; host or cells: human cancer cells

[1] = target: T3, human 293 cell telomerase (Homo sapiens, UniProt O14746); experiment: Conventional telomerase assay (32P-dGTP as radiolabel substrate); format: biochemical
T3 construct: with 20 μl of S100 enzyme extract; endogenous in cells; host or cells: 293 cells (transformed human embryonic kidney), S100 extract
Procedure: (§4) Telomerase was prepared from transformed human embryonic kidney 293 cell line. Human embryonic kidney 293 cells were grown in Joklik's modified MEM niedium (Sigma, St Louis, Mo.) supplemented with 5% fetal bovine serum at 37° C. in a humidified atmosphere with 5% CO2. The cells were subcultured at 1-2×10^5 cells/ml twice a week. When the cells grew to approximately 1×10^6 cells/ml, the cells (˜2×10^9 cells) were centrifuged and transferred into polypropylene centrifuge (50 ml) tubes and kept on ice. The cells were then centrifuged in a (Beckman GS-6R) centrifuge at 1200 RPM for 10 minutes at 4° C., and resuspended in PBS. The washed cells were resuspended in 15 ml Hypobuffer Mix (10 mM HEPES, pH 8.0, 3 mM KCl, 1 mM MgCl2, 1 mM dithiothreitol, 1 μM leupeptin, 0.1 mM PMSF, 10 μM pepstatin, 0.83 μg/ml chymostatin, 0.83 μg/ml antipain, and 43.2 units/ml RNase Guard) and centrifuged. The cell pellets were resuspended in 0.75×volumes Hypobuffer [Hypobuffer Mix+40 units/ml RNase Guard (Pharmacia, N.J.) to allow the cells to swell. The cell suspensions were homogenized to allow the telomerase to “leak” into the cytosolic fraction. The lysate was then poured into new, autoclaved, 3 ml polyallomer ultracentrifuge tubes and centrifuged at 100,000×g for 1 hour at 4° C. A top lipid layer was carefully removed and discarded, and the supernatant was collected. 1/50 of the volume of 5 M NaCl was added to the clear supernatant fluid to achieve a final concentration of 0.1 M. Sterile glycerol was added until the final glycerol concentration was 20%. The enzyme solution was aliquoted into Eppendorf tubes and quickly frozen in liquid nitrogen and stored at −70° C.
The assay is based on the ability of the telomerase enzyme in the S100 fractions to recognize an 18-base DNA primer with the DNA sequence (TTAGGG)3. DNA polymerization initiates from the 3′-OH group of the oligonucleotide. By reading from its complementary internal RNA template, telomerase adds a repeated set of 5′-TTAGGG-3′ to the original 18-base primer. Non-synchronous “starts” and “terminations” among the different enzyme complexes result in a degenerative set of different length DNA primers occurring in 6-base increments. Incorporation of [α-^32P]dGTP at the guanine positions of the 5′-TTAGGG-3′ sequence allows the newly synthesized DNA fragments to be visualized by autoradiography. The resulting image forms the characteristic “ladder” structure that is used to identify telomerase activity. The images are scanned using a phosphoimager or laser densitometer (Molecular Dynamics, Sunnyvale, Calif.). Comparisons of the total volumes under the corresponding peaks are used to quantitate the total amount of [α-^32P] incorporated in the primer extension reaction.
The telomerase assay was initiated by mixing 20 μl of 2×reaction mix (100 mM Tris-OAc, pH 8.5, 100 mM KOAc, 10 mM β-mercaptoethanol, 2 mM spermidine, 2 mM MgCl2, 2 mM dATP, 2 mM dTTP, 2 μM oligo primer, potential inhibitors of interest at the appropriate concentration, and 50 μCi [α^32-P]dGTP) with 20 μl of S100 enzyme extract. The reaction mixture was then incubated at 30° C. for 1 hour. The reaction was stopped by incubating sequentially with 50 μl of the stop solution (10 mM Tris pH 7.5, 20 mM EDTA, 0.1 mg/ml RNase A) and 50 μl of deproteinase solution (10 mM Tris pH 7.5, 0.5% SDS, 0.3 mg/ml Proteinase K). The mixture was extracted with 50% phenol/50% chloroform (v/v). The DNA was then precipitated by adding 2.5×volumes of cold EtOH and letting it stand overnight at −70° C. The DNAs were separated on an 8% polyacrylamide/7M urea denaturing gel at 1600 V for 1.5 hours. The gel was dried and exposed to Kodak XAR-5 film to gel in −70° C. Typical autoradiographic exposures required 3-14 days.

[2] = target: T3, human 293 cell telomerase; experiment: Modified telomerase assay (32P-dATP as radiolabeled substrate); format: biochemical
Procedure: as §4
In the conventional telomerase assay, the concentrations of both non-radiolabeled nucleotides, dATP and dTTP, are 1 mM, and the concentration of the radiolabeled [^32P]dGTP is 1.56 μM. Because of the high concentration of dATP and dTTP, the standard assay may not be suitable for determining the potential telomerase inhibition of any “Adenine or Thymine” analogs. […] All other chemicals and reaction conditions are identical to the conventional assay.

human telomerase = target: T4, human telomerase (Homo sapiens, UniProt O14746); experiment: Cell-free telomerase inhibition, conventional or modified assay not stated; format: biochemical
T4 construct: telomerase in S100 extracts of transformed human fetal kidney tumor 293 cells (a processive telomerase); endogenous in cells; host or cells: human cells, (S100 extract)
Procedure: Selected nucleoside triphosphates were tested in one or both of the “conventional” or “modified” telomerase assays described in Methods using the human processive and the CHO non-processive telomerases. Initially, three chain-terminators were selected: 2′,3′-dideoxythymidine triphosphate (ddTTP), 3′-fluoro-2′,3′-dideoxythymidine triphosphate (F-ddTTP), and 3′-azido-2′-, 3′-dideoxythymidine triphosphate (AZ-ddTTP) as prototype agents to investigate whether they could inhibit telomerase activity. The three compounds are dTTP analogs without a 3′-OH group for subsequent chain elongation. They may either incorporate into the telomere sequence and terminate further chain elongation or compete directly with dTTP for the substrate binding site in the telomerase reaction. In either case, telomerase activity is inhibited.

[3] = test system: transformed human embryonic kidney 293 cells; experiment: Growth inhibition (MTT), 293 cells; format: cell-based; details: HEK293, 144 h, 6 days
Procedure: as §1, §2, §3

[4] = test system: human colon carcinoma HT29 cells; experiment: Growth inhibition (MTT), HT29 cells; format: cell-based; details: HT-29, 144 h, 6 days
Procedure: as §1, §2, §3

T3 sequence (O14746 whole entry): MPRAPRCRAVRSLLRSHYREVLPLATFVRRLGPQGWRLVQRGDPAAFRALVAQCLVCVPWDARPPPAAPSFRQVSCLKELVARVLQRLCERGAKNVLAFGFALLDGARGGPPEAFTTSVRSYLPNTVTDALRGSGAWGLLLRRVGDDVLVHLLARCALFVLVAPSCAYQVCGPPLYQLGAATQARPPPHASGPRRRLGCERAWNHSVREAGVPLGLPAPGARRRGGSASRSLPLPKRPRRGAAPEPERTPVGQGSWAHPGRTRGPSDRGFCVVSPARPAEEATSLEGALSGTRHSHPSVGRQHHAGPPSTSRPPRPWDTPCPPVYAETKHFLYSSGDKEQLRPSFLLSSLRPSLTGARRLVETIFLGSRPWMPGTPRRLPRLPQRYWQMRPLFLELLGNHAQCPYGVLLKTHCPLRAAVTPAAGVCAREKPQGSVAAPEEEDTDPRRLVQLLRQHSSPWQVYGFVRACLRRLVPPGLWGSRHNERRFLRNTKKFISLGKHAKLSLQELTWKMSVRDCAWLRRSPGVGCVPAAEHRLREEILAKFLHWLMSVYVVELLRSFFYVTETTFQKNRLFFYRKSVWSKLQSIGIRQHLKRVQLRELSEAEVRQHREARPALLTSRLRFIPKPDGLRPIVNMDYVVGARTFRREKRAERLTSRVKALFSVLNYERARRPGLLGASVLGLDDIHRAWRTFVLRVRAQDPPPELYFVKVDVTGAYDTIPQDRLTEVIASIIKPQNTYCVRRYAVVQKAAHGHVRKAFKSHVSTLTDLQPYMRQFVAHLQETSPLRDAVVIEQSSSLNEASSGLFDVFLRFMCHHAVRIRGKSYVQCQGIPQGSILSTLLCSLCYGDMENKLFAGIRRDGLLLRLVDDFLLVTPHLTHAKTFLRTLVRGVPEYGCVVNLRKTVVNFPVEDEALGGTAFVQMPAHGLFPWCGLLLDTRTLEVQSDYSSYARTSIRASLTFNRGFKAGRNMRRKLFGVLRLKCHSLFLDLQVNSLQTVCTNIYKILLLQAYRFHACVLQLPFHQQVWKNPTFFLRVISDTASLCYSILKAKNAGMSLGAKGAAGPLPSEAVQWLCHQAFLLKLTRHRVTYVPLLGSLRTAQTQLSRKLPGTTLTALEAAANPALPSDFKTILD
T3 sequence (O60832 whole entry partner): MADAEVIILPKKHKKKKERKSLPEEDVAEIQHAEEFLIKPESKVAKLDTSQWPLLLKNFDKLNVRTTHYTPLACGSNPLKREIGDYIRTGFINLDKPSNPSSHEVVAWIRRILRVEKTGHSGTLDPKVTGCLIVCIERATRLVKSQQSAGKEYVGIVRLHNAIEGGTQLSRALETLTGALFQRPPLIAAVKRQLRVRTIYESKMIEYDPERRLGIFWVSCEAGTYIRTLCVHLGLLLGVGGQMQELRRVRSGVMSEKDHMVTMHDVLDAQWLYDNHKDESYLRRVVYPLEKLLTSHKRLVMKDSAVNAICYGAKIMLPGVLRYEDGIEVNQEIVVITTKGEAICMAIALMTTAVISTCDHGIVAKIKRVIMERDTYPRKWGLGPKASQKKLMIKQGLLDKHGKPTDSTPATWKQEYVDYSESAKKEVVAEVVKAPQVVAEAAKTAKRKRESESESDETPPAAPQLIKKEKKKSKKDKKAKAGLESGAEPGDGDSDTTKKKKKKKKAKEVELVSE
T3 sequence (Q9NPE3 whole entry partner): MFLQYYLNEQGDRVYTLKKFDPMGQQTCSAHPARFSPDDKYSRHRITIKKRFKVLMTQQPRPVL
T3 sequence (Q9NX24 whole entry partner): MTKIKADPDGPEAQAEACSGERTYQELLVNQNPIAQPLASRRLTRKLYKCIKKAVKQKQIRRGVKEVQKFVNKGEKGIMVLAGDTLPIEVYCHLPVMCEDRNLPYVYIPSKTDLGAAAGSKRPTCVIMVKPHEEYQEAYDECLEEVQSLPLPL
T3 sequence (Q9NY12 whole entry partner): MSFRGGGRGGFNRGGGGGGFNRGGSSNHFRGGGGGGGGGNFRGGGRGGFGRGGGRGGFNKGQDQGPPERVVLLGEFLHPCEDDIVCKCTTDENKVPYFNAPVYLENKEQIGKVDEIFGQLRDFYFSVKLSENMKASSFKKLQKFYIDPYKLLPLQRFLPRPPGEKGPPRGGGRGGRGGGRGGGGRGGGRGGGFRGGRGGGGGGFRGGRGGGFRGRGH
T2 sequence (O14746 whole entry): as the sequence (O14746 whole entry) above
T2 sequence (O60832 whole entry partner): as the sequence (O60832 whole entry partner) above
T2 sequence (Q9NPE3 whole entry partner): as the sequence (Q9NPE3 whole entry partner) above
T2 sequence (Q9NX24 whole entry partner): as the sequence (Q9NX24 whole entry partner) above
T2 sequence (Q9NY12 whole entry partner): as the sequence (Q9NY12 whole entry partner) above
T1 sequence (O14746 whole entry): as the sequence (O14746 whole entry) above
T1 sequence (O60832 whole entry partner): as the sequence (O60832 whole entry partner) above
T1 sequence (Q9NPE3 whole entry partner): as the sequence (Q9NPE3 whole entry partner) above
T1 sequence (Q9NX24 whole entry partner): as the sequence (Q9NX24 whole entry partner) above
T1 sequence (Q9NY12 whole entry partner): as the sequence (Q9NY12 whole entry partner) above
T4 sequence (O14746 whole entry): as the sequence (O14746 whole entry) above
T4 sequence (O60832 whole entry partner): as the sequence (O60832 whole entry partner) above
T4 sequence (Q9NPE3 whole entry partner): as the sequence (Q9NPE3 whole entry partner) above
T4 sequence (Q9NX24 whole entry partner): as the sequence (Q9NX24 whole entry partner) above
T4 sequence (Q9NY12 whole entry partner): as the sequence (Q9NY12 whole entry partner) above

Row | IC50 (HeLa cell telomerase) [µM] | IC50 (SKBR3) [µM] | IC50 (BT-20) [µM] | IC50 (PC3) [µM] | IC50 (MCF-7) [µM] | IC50 (Raji) [µM] | IC50 (DU145) [µM] | Structure (SMILES) | IC50 (MDA-231) [µM] | further results
1 | 4.9 | – | – | – | – | – | – | COc1nc(N)nc2c1ccn2[C@H]1C[C@H](O)[C@@H](COP(=O)(O)OP(=O)(O)OP(=O)(O)O)O1 [Compound 6, 6-Methoxy-7-deaza-2′-deoxyguanosine Triphosphate] | – | –
2 | 159 | – | – | – | – | – | – | Cn1c(N)nc2c(ccn2[C@H]2C[C@H](O)[C@@H](COP(=O)(O)OP(=O)(O)OP(=O)(O)O)O2)c1=O [Compound 7, 1-Methyl-7-deaza-2′-deoxyguanosine Triphosphate] | – | incorporation into telomeric ladders, replacing dGTP (human cancer telomerase; modified assay, 1 mM dTTP, 3.12 μM [α-32P]dATP): incorporation

Second part, the molecule before the results:

Row | Structure (SMILES) | IC50 (HeLa cell telomerase) [µM] | IC50 (SKBR3) [µM] | IC50 (BT-20) [µM] | IC50 (PC3) [µM] | IC50 (MCF-7) [µM] | IC50 (Raji) [µM] | IC50 (DU145) [µM] | IC50 (MDA-231) [µM] | further results
3 | COc1nc(N)nc2c1ccn2[C@H]1C[C@H](O)[C@@H](CO)O1 [6-methoxy-7-deaza-2′-deoxyguanosine] | 4.9 | – | – | – | – | – | – | – | –
4 | Nc1nc2c(c(=S)[nH]1)CC=N2 [6-thio-7-deaza guanine] | – | 74 | 258 | 120 | 84.2 | 84.1 | > 100 | > 50 | –
5 | CSc1nc(N)nc2c1ccn2C1CC(O)C(CO)O1 (stereo not shown) [Compound 3, 6-Thiomethyl-7-deaza-2′-deoxyguanosine] | – | 74 | 94.3 | > 100 | 88.6 | 84.1 | > 100 | 281 | –
6 | Cn1c(N)nc2c(ccn2[C@H]2C[C@H](O)[C@@H](CO)O2)c1=O [Compound 5, 1-N-methyl-7-deaza-2′-deoxyguanosine] | 159 | – | 60.3 | 93.4 | 57.5 | 43.4 | > 50 | > 50 | –
7 | CSc1nc(N)nc2c1ccn2[C@H]1C[C@H](O)[C@@H](COP(=O)(O)OP(=O)(O)OP(=O)(O)O)O1 [Compound 9, 6-Thiomethyl-7-deaza-2′-deoxyguanosine Triphosphate] | – | – | – | – | – | – | – | – | inhibition in a HeLa cell telomerase assay (HeLa cell telomerase; up to 62.5 μM): no inhibition
8 | Nc1nc2c(ccn2[C@H]2C[C@H](O)[C@@H](COP(=O)(O)OP(=O)(O)OP(=O)(O)O)O2)c(=O)[nH]1 [NA022, 7-Deaza-2′-Deoxyguanosine-5′-Triphosphate] | – | – | – | – | – | – | – | – | remaining activity at 1 µM ([1]; 1.0 μM, read-out: % of Control): 99%; remaining activity at 2.5 µM ([1]; 2.5 μM, read-out: % of Control): 114%; remaining activity at 5 µM ([1]; 5.0 μM, read-out: % of Control): 67%; remaining activity at 7.5 µM ([1]; 7.5 μM, read-out: % of Control): 81%; remaining activity at 10 µM ([1]; 10 μM, read-out: % of Control): 24%; remaining activity at 25 µM ([1]; 25 μM, read-out: % of Control): 27%; remaining activity at 50 µM ([1]; 50 μM, read-out: % of Control): 18%; remaining activity at 75 µM ([1]; 75 μM, read-out: % of Control): 0%; remaining activity at 100 µM ([1]; 100 μM, read-out: % of Control): 0%; IC50 ([1]; [α-32P]dGTP 1.56 μM, TTP and dATP 1 mM): 11 µM; Inhibition of 293 Telomerase, Conventional Assay *dGTP ([1]; up to 2 mM): concentration-dependent inhibition; Substrate of 293 Telomerase (human cancer telomerase; dGTP analog): Is a substrate Produces short telomere Substrate Inhibition; concentration above which there was no activity (human cancer telomerase; dGTP replaced, 1 mM dTTP, 3.12 μM [α-32P]dATP): > 1.5 mM; IC50 ([2]; [α-32P]dATP 3.12 μM, TTP and dGTP 1 mM): 56 µM and < 100 µM; Inhibition of 293 cell telomerase, modified assay ([2]; competing radioactive nucleotide 3.12 μM [α32P]dATP): concentration-dependent inhibition; IC50 (human telomerase; Summary values, assay variant not stated, read-out: IC50): 6.8 µM; times more potent than AZT-TP (human telomerase; from IC50 values): at least 50 times
9 | Nc1nc2c(ccn2[C@H]2C[C@H](O)[C@@H](CO)O2)c(=S)[nH]1 [NA028, 6-Thio-7-Deaza-2′-Deoxyguanosine] | – | 108 | 84 | 209 | 108 | 103 | > 100 | 117 | IC50 [3]: 461 µM; IC50 [4]: 461 µM
